The source of these data is patent publication US9815796B2 (Merck Sharp & Dohme Corp., priority 2013, dated 2017).

Read-outs that look alike come from different tables or passages of the source.

One series has as its system other PDE isoforms. Conditions: reported in Brandon et al., Annual Reports in Medicinal Chemistry 42: 4-5, 2007; cited from earlier work.
For series [1] the following is noted: reported in Brandon et al., Annual Reports in Medicinal Chemistry 42: 4-5, 2007; cited from earlier work.
The next series concerns the target Rhesus PDE2A3 (Macaca mulatta, UniProt B3VTJ2). The series is described as follows: PDE2 fluorescence polarization (IMAP FP) inhibition assay, rhesus enzyme. The format is biochemical, rhesus macaque. The method in brief:
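Rhesus PDE2A3 came from lysate of transiently transfected AD293 cells, diluted to give 20% substrate conversion. Substrate was 50 nM FAM-cAMP with 1 uM cGMP activator in Tris pH 7.2/MgCl2 buffer, run 60 min at room temperature over 10-point 3-fold dilutions in 1% DMSO. Read-out was IMAP fluorescence polarization (mP) after ≥1 h binding.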

Another series concerns the target human PDE2A1 (Homo sapiens (Human), UniProt O00408). Put plainly: IMAP FP PDE selectivity panel, human PDE2A1. The format is biochemical. The method in brief:
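GST-tagged human PDE2A1 expressed in insect cells, run at room temperature for 60 min with 50 nM FAM-cAMP containing 1000 nM cGMP, pH 7.2 Tris/MgCl2 buffer. IMAP fluorescence polarization read after binding step.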

Where [2] appears, read: Rhesus PDE2, Lab A, read-out: Rhesus PDE2 Ki (nM) - Lab A.
Setting [3] is: Human PDE2, Lab A, read-out: Human PDE2 Ki (nM) - Lab A.
Setting [4] is: Rhesus PDE2, Lab B, read-out: Rhesus PDE2 Ki (nM) - Lab B.
Setting [5] is: Human PDE2, Lab B, read-out: Human PDE2 Ki (nM) - Lab B.

human PDE2A1, sequence (O00408 other isoform, or with tags, fused parts or gaps): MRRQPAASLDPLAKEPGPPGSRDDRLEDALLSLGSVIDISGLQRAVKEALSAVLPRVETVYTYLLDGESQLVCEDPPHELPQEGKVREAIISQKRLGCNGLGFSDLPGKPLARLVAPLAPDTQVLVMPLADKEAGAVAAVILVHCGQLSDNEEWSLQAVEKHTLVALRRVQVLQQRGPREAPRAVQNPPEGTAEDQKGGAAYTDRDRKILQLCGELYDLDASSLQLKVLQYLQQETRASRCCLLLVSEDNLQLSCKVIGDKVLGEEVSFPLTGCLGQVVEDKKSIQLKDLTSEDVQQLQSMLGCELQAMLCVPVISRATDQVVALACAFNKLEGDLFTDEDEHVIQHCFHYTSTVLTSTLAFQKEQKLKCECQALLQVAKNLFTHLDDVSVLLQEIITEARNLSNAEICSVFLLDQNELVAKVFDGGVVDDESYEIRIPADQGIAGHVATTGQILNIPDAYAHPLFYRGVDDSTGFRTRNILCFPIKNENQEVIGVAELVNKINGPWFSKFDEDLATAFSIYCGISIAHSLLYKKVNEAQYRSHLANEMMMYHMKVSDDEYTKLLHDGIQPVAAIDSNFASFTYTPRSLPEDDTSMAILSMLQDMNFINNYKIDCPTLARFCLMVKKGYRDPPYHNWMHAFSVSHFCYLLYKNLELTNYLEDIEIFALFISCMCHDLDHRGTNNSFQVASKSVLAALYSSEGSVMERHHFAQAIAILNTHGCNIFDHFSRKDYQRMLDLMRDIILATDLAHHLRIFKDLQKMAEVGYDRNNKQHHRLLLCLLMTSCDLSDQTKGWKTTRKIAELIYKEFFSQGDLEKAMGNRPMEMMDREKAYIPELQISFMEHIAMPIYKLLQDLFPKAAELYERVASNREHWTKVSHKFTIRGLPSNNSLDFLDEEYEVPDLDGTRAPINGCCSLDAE
Rhesus PDE2A3, sequence (B3VTJ2 1-941): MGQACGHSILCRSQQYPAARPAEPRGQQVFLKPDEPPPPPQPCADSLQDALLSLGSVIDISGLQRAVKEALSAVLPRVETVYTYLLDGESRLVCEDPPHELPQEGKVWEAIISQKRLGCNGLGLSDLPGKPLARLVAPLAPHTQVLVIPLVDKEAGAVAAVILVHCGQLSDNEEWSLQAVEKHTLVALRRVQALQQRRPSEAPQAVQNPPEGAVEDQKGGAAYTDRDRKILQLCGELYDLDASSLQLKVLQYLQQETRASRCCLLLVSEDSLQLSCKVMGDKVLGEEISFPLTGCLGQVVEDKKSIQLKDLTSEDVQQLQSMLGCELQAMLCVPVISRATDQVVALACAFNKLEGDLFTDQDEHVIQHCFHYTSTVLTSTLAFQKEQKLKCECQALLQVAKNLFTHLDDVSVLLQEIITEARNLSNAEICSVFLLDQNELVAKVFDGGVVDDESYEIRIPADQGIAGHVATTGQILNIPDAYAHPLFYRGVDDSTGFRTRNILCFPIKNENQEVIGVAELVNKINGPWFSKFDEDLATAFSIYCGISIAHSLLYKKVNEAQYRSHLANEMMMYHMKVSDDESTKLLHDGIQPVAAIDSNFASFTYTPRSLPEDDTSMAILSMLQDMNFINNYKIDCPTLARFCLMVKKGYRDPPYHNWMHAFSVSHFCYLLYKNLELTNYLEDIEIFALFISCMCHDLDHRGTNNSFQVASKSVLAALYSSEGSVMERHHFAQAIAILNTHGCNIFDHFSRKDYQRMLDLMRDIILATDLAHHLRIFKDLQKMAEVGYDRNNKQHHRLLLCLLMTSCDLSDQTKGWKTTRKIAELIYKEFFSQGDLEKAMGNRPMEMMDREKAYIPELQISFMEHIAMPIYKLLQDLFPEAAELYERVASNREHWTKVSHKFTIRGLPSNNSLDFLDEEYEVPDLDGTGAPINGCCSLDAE

Take `COc1ccc(Cc2nn3c([C@@H](CCCc4ccccc4)[C@@H](C)O)nc(C)c3c(=O)[nH]2)cc1OC` [BAY 60-7550]: the “potency at other PDE isoforms” value in the series on other PDE isoforms is on record as “significant potency at other PDE isoforms”. Further, in series [1], the brain penetration result is given as “limited brain penetration”.
`Cc1nc(C(=O)N[C@@H](c2ccc(C(F)(F)F)cc2)C(C)C)cc(=O)[nH]1` [Example 316, 2-methyl-N-{(1R)-2-methyl-1-[4-(trifluoromethyl)phenyl]propyl}-6-oxo-1,6-dihydropyrimidine-4-carboxamide]: the values for the Ki on Rhesus PDE2A3 (setting [2]) and at human PDE2A1 (setting [3]) were 13 nM and 7.1 nM, respectively.
As for `Cc1nc(C(=O)NC(C)c2ccc(C(F)(F)F)cc2C)cc(=O)[nH]1` (stereo not drawn) [Example 25, 2-methyl-N-{1-[2-methyl-4-(trifluoromethyl)phenyl]ethyl}-6-oxo-1,6-dihydropyrimidine-4-carboxamide], the figures for the Ki on Rhesus PDE2A3 (setting [2]) and at human PDE2A1 (setting [3]) were 1140 nM and 663 nM, respectively.
On to `CC(C)(C)[C@@H](NC(=O)c1cc(=O)[nH]c(C2CC2)n1)c1ccc(C(F)(F)F)cc1F` [Example 445, 2-cyclopropyl-N-{(1R)-1-[2-fluoro-4-(trifluoromethyl)phenyl]-2,2-dimethylpropyl}-6-oxo-1,6-dihydropyrimidine-4-carboxamide], for which the inhibition constant (Ki) at Rhesus PDE2A3 (setting [4]) came to 2.1 nM; at human PDE2A1 (setting [5]) it was 1.7 nM.
In the case of `CC(C)(NC(=O)c1cc(=O)[nH]c(-c2ncccn2)n1)c1ccc(C(F)(F)F)c(F)c1` [Example 82, N-{1-[3-fluoro-4-(trifluoromethyl)phenyl]-1-methylethyl}-6-oxo-1,6-dihydro-2,2′-bipyrimidine-4-carboxamide], the inhibition constant (Ki) is 153 nM on Rhesus PDE2A3 (setting [2]) and 82 nM at human PDE2A1 (setting [3]).
Turning to `COc1ccc(Cc2nc(C(=O)N[C@@H](c3ccc(C(F)(F)F)c(F)c3)C(C)C)cc(=O)[nH]2)cc1` [Example 472, N-{(1R)-1-[3-fluoro-4-(trifluoromethyl)phenyl]-2-methylpropyl}-2-(4-methoxybenzyl)-6-oxo-1,6-dihydropyrimidine-4-carboxamide], the Ki was determined as 1.6 nM on Rhesus PDE2A3 (setting [4]) and 1.7 nM on human PDE2A1 (setting [5]).
